Experiments:
[1] = test system: rat cortical stem cells; experiment: Neurite outgrowth of neurons derived from rat cortical stem cells (ArrayScan neurite outgrowth index); format: cell-based; settings: 1 day; 0.5 mM valproate, 50 ng/ml BDNF; control 35.1+0.3
Procedure: Following plating cells were expanded for about 3–4 days (Passage 1, P1). Cells were treated daily with 10 ng/ml bFGF. The cultures were never permitted to reach more than 70% confluency. Cultures were then passaged as follows: 10 ml of HBSS without Ca^2+ and Mg^2+ was added to each 100 mm dish and the cells incubated at 37° C. for 5–15 minutes, or until sufficient numbers of the stem cells were rounded up. It is not expected that all cells in the culture will round up as there are several cell types in the culture at P0. The pH of the HBSS should be neutral at all times during this incubation. Cells were then removed from the dish by pipetting with a 5 ml pipette, and collected in a 15 or 50 ml conical tube, and centrifuged at 1000 g for 5 minutes. Cells were gently re-suspended in medium, counted, and plated at a density of 1×10^6 cells in 10 cm dishes and expanded for about 2 days in bFGF (Passage 1, P1). […]
For analysis of neurite outgrowth, digital images were taken with an ArrayScan HCS System (Cellomics, Pa.) of 100 cells/well treated with valproate (0.5 mM) and BDNF (50 ng/ml) for 1 day. […] Neurite outgrowth index is defined as the percentage of cells whose neurites total more than 20 μm in length, and is calculated using Cellomics' Neurite Outgrowth application.

[2] = test system: rat stem cells from ventral forebrain i.e. the lateral ganglionic eminence (LGE); experiment: Neuronal differentiation of rat stem cells from ventral forebrain (lateral ganglionic eminence); format: cell-based; settings: data not shown
Procedure: Isolation of cortical and striatal stem cells. […] The abdomen of the rat was cleaned with 70% ethanol and the uterus was removed quickly and aseptically on the bench top.
Removal of meninges is not possible at this age, and no attempt was made to do so. If the dissected tissue was in large enough chunks and settle to the bottom of the tube, no centrifugation was performed. Alternatively, the tube was centrifuged at 1000 rpm for 5 minutes to pellet the tissue. Following centrifugation, the 15 ml tube containing the tissue was sprayed with 70% ethanol and taken into the sterile hood.
About 4–5 ml of the 6 ml of cells suspension was used for plating. […] This culture is designated P0 (passage 0).
The cultures were never permitted to reach more than 70% confluency. […] It is not expected that all cells in the culture will round up as there are several cell types in the culture at P0. The pH of the HBSS should be neutral at all times during this incubation.

Compound: CCCC(CCC)C(=O)O [valproate, 2-Propylpentanoic acid]
- neurite index (percentage of cells whose neurites total more than 20 μm in length) [1]: 49+1.9
- percentage and number of neurons [2]: increased the percentage and number of neurons

Reference: patent US7132286B2, “Method for neural stem cell differentiation using valproate” (Psychiatric Genomics, Inc., priority 2001, dated 2006)
